Results from US8846639B2, “Oligomeric compounds comprising bicyclic nucleosides and having reduced toxicity” (Isis Pharmaceutical, Inc., priority 2008, dated 2014).
“And” between values parts separate entries of the source, which are not always exact repeats. Equal entries are not always repeated.

How the values were obtained:
[1] = test system: PTEN RNA; assay: PTEN RNA in liver (Example 15 in vivo study); parameters: species or system mice; conditions: 72 h, compared to PBS control
Method: (§1) Six week old male Balb/c mice (Jackson Laboratory, Bar Harbor, Me.) were administered a single intraperitoneal (i.p) injection of oligomers as set forth in the table below.
(§2) Mice were divided into 9 groups, with 4 mice in each group. The mice of 8 groups received a single dose, administered i.p., of one of the above oligomeric compounds at a dose of 100, 32, 10, or 3.2 mg/kg. The final group was dosed with phosphate buffered saline (PBS) as a control. The mice were sacrificed 72 hours after administration. Antisense activity was determined by measuring PTEN RNA in liver.

[2] = Serum ALT, individual animals (Example 15); format: in vivo, mice; conditions: for ALT levels - Individual animals: serum, four animals
Method: as §2

[3] = Body weight at sacrifice relative to pre-dose (Example 15); format: in vivo, mice; conditions: for % of pre-dose weight: 72 h, PBS = 99
Method: as §2
(§3) Body weight was measured before treatment and again at sacrifice 72 hours after treatment.

[4] = Spleen weight as a measure of inflammatory response (Example 15); format: in vivo, mice; conditions: for spleen weight, % Control: relative to PBS control
Method: as §2
(§4) Spleens were weighed as a measure of inflammatory response.

[5] = test system: PTEN RNA; assay: PTEN RNA in liver (Example 16 in vivo study); parameters: species or system mice; conditions: for % Reduction PTEN RNA: liver, 72 h, compared to PBS control; for ED50: PTEN RNA in liver
Method: as §1
as §2, with “17” for “9”, “16” for “8”, “liver and is expressed as % reduction compared to PBS control mice.” for “liver.”

[6] = Serum ALT, individual animals (Example 16); format: in vivo, mice; conditions: four animals
Method: as §2, with “17” for “9”, “16” for “8”, “liver and is expressed as % reduction compared to PBS control mice.” for “liver.”
Toxicity was assessed by measuring alanine aminotranferease (ALT) in serum.

[7] = Body weight at sacrifice relative to pre-dose (Example 16); format: in vivo, mice; conditions: 72 h, PBS = 102
Method: as §2, with “17” for “9”, “16” for “8”, “liver and is expressed as % reduction compared to PBS control mice.” for “liver.”
as §3

[8] = Spleen weight as a measure of inflammatory response (Example 16); format: in vivo, mice; conditions: for spleen weight, % Control: relative to PBS control
Method: as §2, with “17” for “9”, “16” for “8”, “liver and is expressed as % reduction compared to PBS control mice.” for “liver.”
as §4

[9] = test system: PTEN mRNA; assay: PTEN mRNA levels in liver, real-time PCR (Example 14 in vivo study); parameters: species or system mice; conditions: for PTEN mRNA levels (% inhibition): liver, 72 h; for ED50: estimated, Graphpad Prism, dose at which 50% mRNA reduction is observed
Method: (§5) Six week old male Balb/c mice (Jackson Laboratory, Bar Harbor, Me.) were administered a single intraperitoneal (i.p) injection with 4′-CH2—O-2′ BNA containing oligomers (392745 and 392063) and 6(S)-4′-CH(CH3)—O-2′ BNA containing oligomers (392749 and 411847) at a does of 3.2, 10, 32, 66 and 100 mg/kg. Oligomers 392063 and 411847 contain LNA nucleosides with methylated pyrimidines, and oligomers 392745 and 392749 contain LNA nucleosides with non-methylated pyrimidines in the wings. All intemucleoside linkages are phosphorothioates, nucleosides not followed by a subscript are βD-2′-deoxyribonucleosides, nucleosides followed by a subscript 1 are 4′-CH2—O-2′ modified bicyclic nucleosides, nucleosides followed by a subscript S are 6(S)-4′-CH(CH3)—O-2′ modified bicyclic nucleosides wherein S indicates the configuration at the 6 carbon atom and ^MeC indicates a 5′-methyl cytosine nucleoside.
Each dose group consisted of four animals. The mice were sacrificed 72 hours following the final administration to determine the PTEN mRNA levels in liver using real-time PCR and RIBOGREEN® RNA quantification reagent (Molecular Probes, Inc. Eugene, Oreg.) according to standard protocols. PTEN mRNA levels were determined relative to total RNA (using Ribogreen), prior to normalization to saline-treated control. Results are listed below as the average % inhibition of mRNA expression for each treatment group, normalized to saline-injected control.
Estimated ED50 concentrations for each oligomers were calculated using Graphpad Prism. ED50 is the dose at which 50% mRNA reducation is observed.

[10] = Liver transaminase (ALT) levels in serum (Example 14); format: in vivo, mice
Method: as §5
Liver transaminase levels, alanine aminotranferease (ALT) and aspartate aminotransferase (AST), in serum were also measured relative to saline injected mice. Increases in the transaminase levels can indicate hepatotoxicity. The approximate liver transaminase levels are listed below.

Substance	% Reduction PTEN RNA ([5]; 3.2 mg/kg single i.p.)	% Reduction PTEN RNA ([5]; 10 mg/kg single i.p.)	% Reduction PTEN RNA ([5]; 32 mg/kg single i.p.)	% Reduction PTEN RNA ([5]; 100 mg/kg single i.p.)	ED50 [5]	ALT levels - Individual animals ([6]; 3.2 mg/kg)	ALT levels - Individual animals ([6]; 10 mg/kg)	ALT levels - Individual animals ([6]; 32 mg/kg)	ALT levels - Individual animals ([6]; 100 mg/kg)	% pre-dose wt ([7]; 3.2 mg/kg)	% pre-dose wt ([7]; 10 mg/kg)	% pre-dose wt ([7]; 32 mg/kg)	% pre-dose wt ([7]; 100 mg/kg)	spleen weight, % Control ([8]; 3.2 mg/kg)	spleen weight, % Control ([8]; 10 mg/kg)	spleen weight, % Control ([8]; 32 mg/kg)	spleen weight, % Control ([8]; 100 mg/kg)	further results
^mCas Tas Tds Ads Gds Cds Ads Cds Tds Gds Gds Cds ^mCas Ta [ISIS 435854]	–	–	–	–	–	–	–	–	–	–	–	–	–	–	–	–	–	% Reduction PTEN RNA ([1]; 3.2 mg/kg single i.p.): 48%; % Reduction PTEN RNA ([1]; 10 mg/kg single i.p.): 73%; % Reduction PTEN RNA ([1]; 32 mg/kg single i.p.): 94%; % Reduction PTEN RNA ([1]; 100 mg/kg single i.p.): 95%; ALT levels - Individual animals ([2]; 3.2 mg/kg): 15 IU/L and 22 IU/L and 20 IU/L and 11 IU/L; ALT levels - Individual animals ([2]; 10 mg/kg): 23 IU/L and 21 IU/L and 33 IU/L and 28 IU/L; ALT levels - Individual animals ([2]; 32 mg/kg): 24 IU/L and 29 IU/L and 16 IU/L and 46 IU/L; ALT levels - Individual animals ([2]; 100 mg/kg): 1575 IU/L and 854 IU/L and 1665 IU/L and 3948 IU/L; Serum ALT ([2]; highest dose): elevated; % of pre-dose weight ([3]; 3.2 mg/kg): 99%; % of pre-dose weight ([3]; 10 mg/kg): 102%; % of pre-dose weight ([3]; 32 mg/kg): 102%; % of pre-dose weight ([3]; 100 mg/kg): 94%; body weight ([3]; highest dose): some weight loss; spleen weight, % Control ([4]; 3.2 mg/kg): 112%; spleen weight, % Control ([4]; 10 mg/kg): 87%; spleen weight, % Control ([4]; 32 mg/kg): 115%; spleen weight, % Control ([4]; 100 mg/kg): 160%; spleen weight compared to control and to the non-methylated compound ([4]; mouse, in vivo): marked increase
^mCjs Tjs Tds Ads Gds Cds Ads Cds Tds Gds Gds Cds ^mCjs Tj [ISIS 443394]	16%	39%	68%	89%	13.5 mg/kg	28 IU/L and 26 IU/L and 30 IU/L and 69 IU/L	55 IU/L and 28 IU/L and 32 IU/L (2×)	55 IU/L and 25 IU/L (2×) and 28 IU/L	23 IU/L (2×) and 44 IU/L and 18 IU/L	102%	102%	101%	101%	106%	96%	97%	98%	–
CSUSTAGCACTGGCCSUS [ISIS 392749]	–	–	–	–	–	–	–	–	–	–	–	–	–	–	–	–	–	PTEN mRNA levels (% inhibition) ([9]; 3.2 mg/kg single i.p.): 14%; PTEN mRNA levels (% inhibition) ([9]; 10 mg/kg single i.p.): 20%; PTEN mRNA levels (% inhibition) ([9]; 32 mg/kg single i.p.): 81%; PTEN mRNA levels (% inhibition) ([9]; 66 mg/kg single i.p.): 92%; PTEN mRNA levels (% inhibition) ([9]; 100 mg/kg single i.p.): 93%; ED50 [9]: 15 mg/kg; ALT levels ([10]; 3.2 mg/kg, serum, saline = 24): 18 IU/L; ALT levels ([10]; 10 mg/kg, serum, saline = 24): 24 IU/L; ALT levels ([10]; 32 mg/kg, serum, saline = 24): 14 IU/L; ALT levels ([10]; 66 mg/kg, serum, saline = 24): 18 IU/L; ALT levels ([10]; 100 mg/kg, serum, saline = 24): 33 IU/L; ALT levels ([10]; all doses): not elevated to a level indicative of hepatotoxicity
Cjs Uos Tds Ads Gds Cds Ads Cds Tds Gds Gds Cds Cjs Uj [ISIS 443393]	10%	35%	64%	91%	16.2 mg/kg	19 IU/L and 36 IU/L and 83 IU/L and 20 IU/L	26 IU/L and 33 IU/L and 30 IU/L and 29 IU/L	21 IU/L and 24 IU/L and 53 IU/L (2×)	16 IU/L and 22 IU/L and 42 IU/L and 23 IU/L	101%	104%	99%	98%	89%	96%	110%	96%	–
^MeCSTSTAGCACTGGC^MeCSTS [ISIS 411847]	–	–	–	–	–	–	–	–	–	–	–	–	–	–	–	–	–	PTEN mRNA levels (% inhibition) ([9]; 3.2 mg/kg single i.p.): 0%; PTEN mRNA levels (% inhibition) ([9]; 10 mg/kg single i.p.): 32%; PTEN mRNA levels (% inhibition) ([9]; 32 mg/kg single i.p.): 87%; PTEN mRNA levels (% inhibition) ([9]; 66 mg/kg single i.p.): 84%; PTEN mRNA levels (% inhibition) ([9]; 100 mg/kg single i.p.): 92%; ED50 [9]: 12 mg/kg; ALT levels ([10]; 3.2 mg/kg, serum, saline = 24): 26 IU/L; ALT levels ([10]; 10 mg/kg, serum, saline = 24): 27 IU/L; ALT levels ([10]; 32 mg/kg, serum, saline = 24): 16 IU/L; ALT levels ([10]; 66 mg/kg, serum, saline = 24): 279 IU/L; ALT levels ([10]; 100 mg/kg, serum, saline = 24): 2816 IU/L; ALT level decrease as compared to 392063 treatment ([10]; dose not stated): about 5 fold
^mCxs Txs Tds Ads Gds Cds Ads Cds Tds Gds Gds Cds ^mCxs Tx [ISIS 445545]	21%	55%	87%	92%	7.7 mg/kg	20 IU/L and 34 IU/L (2×) and 31 IU/L	79 IU/L and 19 IU/L and 28 IU/L and 18 IU/L	22 IU/L and 45 IU/L and 24 IU/L and 47 IU/L	102 IU/L and 135 IU/L and 277 IU/L and 85 IU/L	100%	102%	101%	102%	100%	99%	134%	139%	spleen weight compared to control and to the non-methylated compound ([8]; mouse, in vivo): increase in spleen weight
Cxs Uxs Tds Ads Gds Cds Ads Cds Tds Gds Gds Cds Cxs Ux [ISIS 445544]	31%	72%	93%	95%	4.9 mg/kg	21 IU/L and 28 IU/L and 30 IU/L and 36 IU/L	23 IU/L and 33 IU/L and 20 IU/L and 36 IU/L	23 IU/L and 38 IU/L and 19 IU/L and 22 IU/L	977 IU/L and 1061 IU/L and 88 IU/L and 133 IU/L	103%	101%	102%	98%	98%	92%	101%	109%	–
Cas Uas Tds Ads Gds Cds Ads Cds Tds Gds Gds Cds Cas Ua [ISIS 396006]	–	–	–	–	–	–	–	–	–	–	–	–	–	–	–	–	–	% Reduction PTEN RNA ([1]; 3.2 mg/kg single i.p.): 47%; % Reduction PTEN RNA ([1]; 10 mg/kg single i.p.): 77%; % Reduction PTEN RNA ([1]; 32 mg/kg single i.p.): 95%; % Reduction PTEN RNA ([1]; 100 mg/kg single i.p.): 97%; ALT levels - Individual animals ([2]; 3.2 mg/kg): 27 IU/L and 19 IU/L and 17 IU/L and 24 IU/L; ALT levels - Individual animals ([2]; 10 mg/kg): 18 IU/L and 22 IU/L and 19 IU/L and 20 IU/L; ALT levels - Individual animals ([2]; 32 mg/kg): 24 IU/L and 19 IU/L and 15 IU/L and 23 IU/L; ALT levels - Individual animals ([2]; 100 mg/kg): 28 IU/L (2×) and 23 IU/L (2×); % of pre-dose weight ([3]; 3.2 mg/kg): 100%; % of pre-dose weight ([3]; 10 mg/kg): 101%; % of pre-dose weight ([3]; 32 mg/kg): 101%; % of pre-dose weight ([3]; 100 mg/kg): 100%; spleen weight, % Control ([4]; 3.2 mg/kg): 95%; spleen weight, % Control ([4]; 10 mg/kg): 100%; spleen weight, % Control ([4]; 32 mg/kg): 97%; spleen weight, % Control ([4]; 100 mg/kg): 120%
